From BindingDB's records for doi:10.1016/j.chembiol.2006.05.008 (Gpc Biotech, 2006)

Target: Cyclin-dependent kinase 2 (Homo sapiens, UniProt P24941)
Experiment: Enzymatic Assay
Experimental: CAII assays were performed at CEREP (paris). All other kinase assays were performed at Upstate (Dundee, UK).

CC(C)c1nn(-c2c(Cl)cc(Cl)cc2Cl)c2nc(Cc3ccc(OC(C)(C)C(=O)O)cc3)[nH]c(=O)c12 [RGB-285961]
EC50: 70 nM | IC50: 20 nM
